Results taken from patent US6638531B1, “Antimicrobial peptides” (priority 1998, dated 2003).
Like-named read-outs stand apart in the source and are kept apart here. Marks after values point to notes of the source that are not given here. Where no end group is shown, it is not given here.

Columns and labels:
Format in all cases: cell-based
[1] = test system: artificial oral biofilm of seven oral aerobic and anaerobic types of bacteria; test: Antibacterial activity in an artificial oral biofilm; settings: for inhibition at 35 ppm / inhibition at 200 ppm: po; for % reduction in viability counts, total Gram-negative average (s.d.) / % reduction in viability counts, total aerobic average / % reduction in viability counts, total anaerobic average: 0.5 h, pH 7
Description: An artificial oral biofilm was made by placing hydroxyapatite discs for five days in a continuous culture system of seven oral aerobic and anaerobic types of bacteria (Streptococcus mutans, Streptococcus sanpuis, Streptococcus salivarius, Actinomyces naeslundii, Veillonella parvula, Prevotella intermedia and Fusobacterium nucleatum) The discs with the biofilm formed thereon were subsequently incubated for half an hour with different concentrations of peptide in 10 mM potassium phosphate buffer, pH 7.0. The biofilm was then sonicated from the discs, diluted in PBS and plated out on semi-selective agar plates. The total […] were counted (Streptococci+Actinomyces) on aerobic incubated blood agar plates, the total Gram-negative counts (Veilonella, Fusobacterium and Prevotella) on vancomycin-containing plates and the total counts on the anaerobic incubated blood agar.

[2] = test system: bacteria collected from plaque; test: Antimicrobial activity on oral bacteria; settings: po
Excerpt: (§1) In order to determine whether the peptides according to the invention are also active against bacteria such as are encountered in the mouth, bacteria were collected from saliva and plaque. Saliva was shaken on a vortex mixer and centrifuged.

[3] = test system: bacteria from disrupted plaque; test: Antimicrobial activity on oral bacteria; settings: po
Excerpt: as §1

[4] = test system: bacteria from cultured plaque; test: Antimicrobial activity on oral bacteria; settings: po
Excerpt: as §1

[5] = test system: bacteria collected from saliva; test: Antimicrobial activity on oral bacteria; settings: po
Excerpt: as §1

Lactobacillus rhamnosus = test: Inhibition of lactic acid production; settings: L. rhamnosus; 1 hour in 10 mM PPB with glucose
Description: (§2) All peptides according to the invention were tested for their capacity to inhibit the lactic acid production of the bacteria Streptococcus sanguis, Streptococcus mutans, Streptococcus salivarius and Lactobacillus rhamnosus. The formation of lactic acid is a measure for the metabolic activity. For this purpose cultures of bacteria cells were incubated for 1 hour in 10 mM PPB with 0.5 glucose and different concentrations of the peptides. The formation of lactic acid was monitored by means of spectrophotometry.

Streptococcus sanguis = test: Inhibition of lactic acid production; settings: S. sanguis; 1 hour in 10 mM PPB with glucose
Description: as §2

Streptococcus salivarius = test: Inhibition of lactic acid production; settings: S. salivarius; 1 hour in 10 mM PPB with glucose
Description: as §2

Streptococcus mutans = test: Inhibition of lactic acid production; settings: S. mutans; 1 hour in 10 mM PPB with glucose
Description: as §2

Candida albicans = test: Growth inhibition on agar with spotted peptide; parameters: key: “+” designates full growth inhibition; “+/−” designates partial inhibition; “−” signifies no inhibition; settings: C. albicans on agar, 10 μg peptide spotted
Description: (§3) The growth of the yeast Candida albicans, Torulopsis glabrata and meticillin-resistant Staphylococcus aureus (MRSA) was tested by growing them on agar on which 10 μg of each of the peptides according to the invention was spotted. […] “+” designates full growth inhibition, “+/−” designates partial inhibition and “−” signifies no inhibition.

Torulopsis glabrata = test: Growth inhibition on agar with spotted peptide; parameters: key: “+” designates full growth inhibition; “+/−” designates partial inhibition; “−” signifies no inhibition; settings: T. glabrata on agar, 10 μg peptide spotted
Description: as §3

[6] = test system: meticillin-resistant Staphylococcus aureus (MRSA); test: Growth inhibition on agar with spotted peptide; parameters: key: “+” designates full growth inhibition; “+/−” designates partial inhibition; “−” signifies no inhibition; settings: 10 μg peptide spotted
Description: as §3

[7] = read-out: % reduction in viability counts, total Gram-negative average (s.d.)
[8] = read-out: % reduction in viability counts, total aerobic average
[9] = read-out: % reduction in viability counts, total anaerobic average
[10] = read-out: % reduction in viability counts, total Gram-negative average

| Molecule | inhibition of lactic acid production (Lactobacillus rhamnosus) | inhibition of lactic acid production (Streptococcus sanguis) | inhibition of lactic acid production (Streptococcus salivarius) | inhibition of lactic acid production (Streptococcus mutans) | growth inhibition (Candida albicans) | growth inhibition (Torulopsis glabrata) | growth inhibition [6] | also measured |
| --- | --- | --- | --- | --- | --- | --- | --- | --- |
| [H]/N=C(\N/C(=N/[H])NCCCCCCNC(=N)NC(=N)Nc1ccc(Cl)cc1)Nc1ccc(Cl)cc1 [Chlorhexidine] |  |  |  |  |  |  |  | inhibition at 35 ppm [1, 7]: 68.3%; inhibition at 200 ppm [1, 7]: 99.9%; inhibition at 35 ppm [1, 8]: 39%; inhibition at 200 ppm [1, 8]: 99.9%; inhibition at 35 ppm [1, 9]: 38.4%; inhibition at 200 ppm [1, 9]: 99.9%; inhibition at 50 ppm [2, 10]: 99.7%; inhibition at 50 ppm [2, 8]: 99.7%; inhibition at 50 ppm [2, 9]: 99.7%; inhibition at 50 ppm [3, 10]: > 99.9%; inhibition at 50 ppm [3, 8]: 99.7%; inhibition at 50 ppm [3, 9]: 99%; inhibition at 50 ppm [4, 10]: > 99.9%; inhibition at 50 ppm [4, 8]: > 99.9%; inhibition at 50 ppm [4, 9]: > 99.9%; inhibition at 50 ppm [5, 10]: > 99.9%; inhibition at 50 ppm [5, 8]: > 99.9%; inhibition at 50 ppm [5, 9]: > 99.9% |
| KRKFHEKHHSHRGY [dh-5, C-terminal part of histatin 5, reference compound] | − (“−” signifies no inhibition of lactic acid formation at >100 μg/ml peptide) | − (“−” signifies no inhibition of lactic acid formation at >100 μg/ml peptide) | − (“−” signifies no inhibition of lactic acid formation at >100 μg/ml peptide) | − (“−” signifies no inhibition of lactic acid formation at >100 μg/ml peptide) | − | − | − |  |
| KRLFKELKFSLRKY-amide (KRLFKELKFSLRKY-NH2) [peptide 12] | + (“+” designates full inhibition at 4-20 μg/ml peptide) | + (“+” designates full inhibition at 4-20 μg/ml peptide) | + (“+” designates full inhibition at 4-20 μg/ml peptide) | + (“+” designates full inhibition at 4-20 μg/ml peptide) | + | + |  |  |
| KRLFKELKKSLRKY [peptide 5] | + (“+” designates full inhibition at 4-20 μg/ml peptide) | + (“+” designates full inhibition at 4-20 μg/ml peptide) | + (“+” designates full inhibition at 4-20 μg/ml peptide) | + (“+” designates full inhibition at 4-20 μg/ml peptide) | + | + |  |  |
| KRLFKELLFSLRKY [peptide 4] | + (“+” designates full inhibition at 4-20 μg/ml peptide) | + (“+” designates full inhibition at 4-20 μg/ml peptide) | + (“+” designates full inhibition at 4-20 μg/ml peptide) | + (“+” designates full inhibition at 4-20 μg/ml peptide) | + | + | +/− |  |
| KRLFKELLFSLRKY-amide (KRLFKELLFSLRKY-NH2) [peptide 13] | + (“+” designates full inhibition at 4-20 μg/ml peptide) | + (“+” designates full inhibition at 4-20 μg/ml peptide) | + (“+” designates full inhibition at 4-20 μg/ml peptide) | + (“+” designates full inhibition at 4-20 μg/ml peptide) | + | + |  |  |
| KRLFKELLKSLRKY [peptide 6] | + (“+” designates full inhibition at 4-20 μg/ml peptide) | + (“+” designates full inhibition at 4-20 μg/ml peptide) | + (“+” designates full inhibition at 4-20 μg/ml peptide) | + (“+” designates full inhibition at 4-20 μg/ml peptide) | + | + |  |  |
| KRLFKKLKFSLRKY-OH [peptide 9, KRLFKKLKFSLRKY] | + (“+” designates full inhibition at 4-20 μg/ml peptide) | + (“+” designates full inhibition at 4-20 μg/ml peptide) | + (“+” designates full inhibition at 4-20 μg/ml peptide) | + (“+” designates full inhibition at 4-20 μg/ml peptide) | + | + | + | % reduction in viability counts, total Gram-negative average (s.d.) ([1]; 10 μg/ml): 51.0 (32.0)* %; % reduction in viability counts, total aerobic average ([1]; 10 μg/ml): −67.4%; % reduction in viability counts, total anaerobic average ([1]; 10 μg/ml): −66.2%; % reduction in viability counts, total Gram-negative average (s.d.) ([1]; 100 μg/ml): 30.6 (104.4)* %; % reduction in viability counts, total aerobic average ([1]; 100 μg/ml): 78.7%; % reduction in viability counts, total anaerobic average ([1]; 100 μg/ml): 51.2%; % reduction in viability counts, total Gram-negative average (s.d.) ([1]; 250 μg/ml): 53.3 (70.7) %; % reduction in viability counts, total aerobic average ([1]; 250 μg/ml): 64.8%; % reduction in viability counts, total anaerobic average ([1]; 250 μg/ml): 61.2%; % reduction in viability counts, total Gram-negative average (s.d.) ([1]; 500 μg/ml): 96.9 (0.85)* %; % reduction in viability counts, total aerobic average ([1]; 500 μg/ml): 96.6%; % reduction in viability counts, total anaerobic average ([1]; 500 μg/ml): 93.2% |
| LLLFLLKKRKKRKY [peptide 11] | + (“+” designates full inhibition at 4-20 μg/ml peptide) | + (“+” designates full inhibition at 4-20 μg/ml peptide) | + (“+” designates full inhibition at 4-20 μg/ml peptide) | + (“+” designates full inhibition at 4-20 μg/ml peptide) | + | + | + |  |
| OOLFOELLOSLOOY [peptide 8] | + (“+” designates full inhibition at 4-20 μg/ml peptide) | + (“+” designates full inhibition at 4-20 μg/ml peptide) | + (“+” designates full inhibition at 4-20 μg/ml peptide) | + (“+” designates full inhibition at 4-20 μg/ml peptide) | + | + |  |  |
| OOLFOELOOSLOOY [peptide 7] | + (“+” designates full inhibition at 4-20 μg/ml peptide) | + (“+” designates full inhibition at 4-20 μg/ml peptide) | + (“+” designates full inhibition at 4-20 μg/ml peptide) | + (“+” designates full inhibition at 4-20 μg/ml peptide) | + | + |  |  |
